Laboratory results as given in patent publication US20100267638A1, “EXOSITE-DIRECTED THROMBIN INHIBITORS” (CLEVELAND STATE UNIVERSITY, priority 2003, published 2010).
Several values for one entry are separate records, joined by “and”; a condition that tells them apart may be missing. Equal entries are not always repeated. Entries after “also recorded” stand apart in the source; their conditions may differ. No end group written: not given here.

What was measured:
[1] = target: T1, active-site-immobilized thrombin (Homo sapiens, UniProt P00734); assay: Direct binding of the peptides to thrombin-agarose (chromatography); conditions: 400 μg peptide, 2.5 ml column, elution 2M NaCl
T1 construct: Factor Xa cleaves prothrombin to form thrombin; purchased Haematologic Technologies Inc. (Essex Junction, Vt.)
Experimental: Direct binding of the peptides to thrombin. Thrombin was immobilized onto agarose through the active site as described. Peptide solutions of HC1-HC5 (SEQ ID NO. 2-6, respectively), D13R (SEQ ID NO. 21), DYDYQ (SEQ ID NO. 11), and P15H (SEQ ID NO. 22) were dissolved in water to a given concentration and then diluted in 20 mM Hepes, 0.1 M NaCl, pH 7.4 in a manner that 400 μg was contained in each starting solution. In control experiments it was determined that the maximum amount of peptide that could be retained by the thrombin-agarose column was 400 μg. Since some of the peptides contain aromatic amino acid residues, their concentration was also measured by optical density.
Mass spectrometry instruments and conditions. The identity of all peptides found in the flow-through or the elution of the thrombin-agarose column was verified by mass spectrometry. Since the peptides were in a buffer solution, we used Liquid Chromatography/Mass Spectrometry (LC/MS) for their identification. In this procedure peptides are first separated from the salt content of the buffer using an HPLC system (HP 1100, HPLC gradient system, Agilent Technologies, Palo Alto Calif.) with a C18 column (1 mm×15 cm, GraceVydac, Hesperia Calif.) with buffers A (0.3% acetic acid in water) and B (0.3% acetic acid in acetonitrile). The elution of the column was monitored with a Micromass Quatro II ESI-Triple Quadrupole Mass Spectrometer (Waters, Milford Mass.). The data were collected using a Compaq Professional Workstation AP200 (Hewlett-Packard, Palo Alto Calif.) and analyzed by the software MassLynx v3.3 (Waters, Milford Mass.).
Direct interaction of hirudin-like peptides from factor tor Va heavy chain With thrombin-agarose. To ascertain that the peptides of interest are inhibitory of prothrombinase activity and contain a binding site for thrombin, the interaction of all peptides with active-site-immobilized thrombin was studied in chromatographic experiments and is shown in FIG. 5. In FIG. 5, small scale chromatography of hirudin-like peptides was performed on a 2.5 ml thrombin-agarose. Each run represents 400 μg of peptide. This amount of peptide was determined to saturate the specific sites of thrombin of the column used (2.5 ml). Elution was performed with 2M NaCl and was started at the point indicated by the arrow (fraction #30). The presence of the peptides in the corresponding fractions was monitored by absorbance at 280 nm (shown on the y axis) and by LC/MS (inset). […] Specifically, these peptides were treated similarly to all other peptides and similar fractions were collected. Aliquots from fractions #7 and #35 from each separate experiment were submitted to LC/MS analysis as described herein (depicted by the hatched arrows at the bottom of the chromatogram). The results from tube #7 from three chromatograms are depicted. The data are presented as % intensity of the signal as a function of the mass of the peptide divided by the charge (m/z). FIG. 5A, HC1 (Mr calculated 1268); FIG. 5B, HC2 (Mr calculated 1132); FIG. 5C, HC5 (Mr calculated 1053). The spectrum of HC1 has two major peaks: at 635.5 and at 424, and one minor peak at 1270 (1268+1). The peak at 635.5 represents the peptide (mass/charge) with two positive charges ([…]) i.e. [(1268+2=1270)]/2=635 whereas, the peak at 424 represents HC1 with three positive charges ([…]) i.e. [(1268+3=1271)]/3=424. […] HC5 spectrum has two major peaks: one at 528 and one at 352. The peak at 528 represents the peptide with two positive charges ([…]) i.e. [(1053+2=1055)]/2=527.5 while, the other peak represents HC5 with three positive charges ([M+31-]^2+) i.e. [(1053+3=1056)]/3=352. The minor peak at 1054 represents the peptide with one charge. It is noteworthy, that in gas phase the number of protons attached to each peptide depends on the number (quantity) of basic residues contained in each peptide. […] Thus, HC1 and HC5 are more likely to bind two or three protons than HC2. […]

[2] = target: T2, prothrombinase (Homo sapiens, UniProt P00734); assay: Assay measuring thrombin formation (prothrombinase inhibition by peptides, DAPA fluorescence); format: biochemical
T2 construct: purchased Haematologic Technologies Inc. (Essex Junction, Vt.)
Experimental: Assay measuring thrombin formation. The formation of thrombin was analyzed using the fluorescent thrombin inhibitor DAPA as described using a Perkin Elmer LS-50B Luminescence Spectrometer (Perkin-Elmer LLC, Norwalk Conn.) with λex=280 nm, λem=550 nm and a 500 nm long pass filter in the emission beam (Schott KV-500). […] In all cases peptides were preincubated with factor tor Va prior to the assay as described in the legend to the figures. The final concentration of factor tor Va in the mixture was 4 nM with factor Xa at 10 nM, prothrombin at 350 nM, DAPA at 700 nM, in the presence of PCPS vesicles (10 μM). The initial rate of thrombin formation (nM IIa·min^−1) was calculated as described during the initial 5-10 sec of the reaction. To verify if the peptides have any effect on the active-site of thrombin, control experiments were performed as follows: a given peptide (at 100 μM) was incubated in the assay buffer containing DAPA (700 nM); the base line was monitored for 30 sec; thrombin (350 nM) was then added to the mixture and the fluorescent intensity resulting from the complexation of DAPA with the active site of thrombin was monitored for 60 sec. The slope of the reaction measuring thrombin formation in the presence of a given peptide during the first 5 sec was calculated and compared to the slope of a reaction obtained in the absence of peptide. It is noteworthy that under the conditions employed the thrombin-DAPA interaction occurred fast and the calculated slope of the reaction was sensitive to all parameters used. […] All experiments were performed in triplicates or as indicated. The concentration of each peptide given in the figures and figure legends is their final concentration in the assay. […] In some cases the data were also analyzed and plotted using DeltaGraph (DeltaPoint, Monterey, Calif.).
Specifically, peptides were incubated with factor tor Va as described herein at a fixed concentration (100 μM). The percent of factor tor Va cofactor activity was calculated by comparing the activity of prothrombinase in the presence of a given peptide to the activity of prothrombinase determined in a control reaction in the absence of peptide and in the presence of factor Xa. […] The control peptide represents a pentadecapeptide from the middle portion of factor tor Va heavy chain (P15H) (SEQ ID NO. 22). […] All other peptides from region 680-709 had no significant effect on prothrombinase activity.
HC3 represents amino acid sequence 690-699 of factor tor Va heavy chain; HC4 contains the sequence 695-704 of human factor tor Va heavy chain; P15H represents amino acid sequence 337-351 from the middle portion of human factor tor Va heavy chain. […] The concentration of each peptide given on the x axis represents its final concentration in the prothrombinase mixture. […] Thus, both peptides show similar inhibitory potential.

[3] = target: T3, [OG488]-EGR-hXa-human factor tor Va (Homo sapiens, UniProt P00742); assay: Fluorescence anisotropy of preformed membrane-bound [OG488]-EGR-hXa-factor Va complex; format: binding; conditions: up to 300 μM peptide
T3 construct: purchased Haematologic Technologies Inc. (Essex Junction, Vt.)
T3 sequence (P00742 41-179 limits assumed): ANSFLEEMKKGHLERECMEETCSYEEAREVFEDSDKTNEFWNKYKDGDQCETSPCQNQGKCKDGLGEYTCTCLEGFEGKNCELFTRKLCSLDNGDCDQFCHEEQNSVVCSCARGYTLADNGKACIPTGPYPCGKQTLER
T3 sequence (P00742 235-488 limits assumed): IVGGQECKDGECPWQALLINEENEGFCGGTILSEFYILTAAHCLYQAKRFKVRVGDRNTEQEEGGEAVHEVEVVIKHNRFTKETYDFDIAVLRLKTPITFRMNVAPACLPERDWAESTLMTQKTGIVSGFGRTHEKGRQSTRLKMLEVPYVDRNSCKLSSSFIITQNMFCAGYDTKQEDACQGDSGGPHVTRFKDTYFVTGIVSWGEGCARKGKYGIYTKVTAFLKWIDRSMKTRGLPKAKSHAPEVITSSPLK
Experimental: Fluorescence Anisotropy measurements. Fluorescence anisotropy of [OG488]-EGR-hXa was measured using a Perkin Elmer LS-50B Luminescence Spectrometer in L-format as recently described. Anisotropy measurements were performed in a quartz cuvette under constant stirring (low) with λex=490 nm, λem=520 nm with a long pass filter (Schott KV-520) in the emission beam. […] The concentration of peptide given in each graph is the final concentration of the peptide in the assay mixture. […] In some cases the data were also plotted using DeltaGraph (DeltaPoint, Monterey, Calif.).
HC3 and HC4 were also tested for their ability to interfere with the fluorescence anisotropy of a preformed complex composed of membrane-bound [OG488]-EGR-hXa-human factor tor Va as described. […] The peptides must thus impair another function of the cofactor within prothrombinase.

[4] = system: prothrombinase; assay: Prothrombinase assay using purified reagents and chromogenic substrate (cofactor activity of recombinant factor Va species); conditions: activated with RVV-V activator or factor Xa
[5] = system: factor V deficient plasma; assay: Clotting activity of recombinant factor V molecules
Experimental: Determination of factor V/tor Va clotting activity of the recombinant molecules. Cofactor activity of wild type and mutant molecules was measured in a clotting assay using factor V deficient plasma prior and after activation by thrombin (15 min, 37° C.) and RVV-V activator (2 hr, 37° C.) as described. The values were standardized to the percentage of control. A linear semi-log graph was constructed using known concentrations of purified factor V (U/ml as a function of clotting time). The assay endpoint was determined by visualization of the fibrin clot. The activity of the factor VNa solution (U/ml) was determined by extrapolation from the graph. The concentration of the recombinant molecules was determined by a recently described ELISA. Finally, the numbers were combined to obtain the specific activity of the recombinant factor V solutions (U/mg).

Substance | interaction with immobilized thrombin (thrombin-agarose) [1] | Ki ([2]; calculated from IC50=Ki(1+S0/Km), Km 0.4 μM, S0 350 nM prothrombin, read-out: Ki of prothrombinase inhibition) | IC50 ([2]; factor Va 4 nM, factor Xa 10 nM, prothrombin 350 nM, PCPS 10 μM, peptide preincubated with factor Va) | type of inhibition of prothrombinase with respect to prothrombin ([2]; kinetic analyses, increasing prothrombin and peptide) | effect on prothrombinase / factor Va cofactor activity at fixed concentration ([2]; peptide 100 μM) | interference with binding of factor Va to [OG488]-EGR-hXa (anisotropy) [3] | times less cofactor activity than wild type molecule activated under similar conditions [4] [times] | ability to promote clotting [5] | Activity ([5]; factor V species at 2.5 nM) [U/ml] | Specific activity ([5]; factor V species at 2.5 nM) [U/mg] | clotting time ([5]; factor V species at 2.5 nM) [s]
EESDADYDYQ [HC3] | eluted from the column with high-salt buffer; also recorded: interact with immobilized thrombin | 6.3 µM and ~6.3 µM | 12 µM and ~12 µM | competitive inhibitors | inhibited prothrombinase; also recorded: complete inhibition | No significant decrease; also recorded: unable to interfere with the binding of factor tor Va |  |  |  |  | 
Factor VaRVV^2K2F: quadruple mutant activated with RVV-V activator |  |  |  |  |  |  | ~22 | unable to promote clotting | 0.002 | 2.4 | 73.1 ± 4
